Laboratory results published in patent US8916565B2, “Pyrrolopyrazine-spirocyclic piperidine amides as modulators of ion channels” (priority 2011, dated 2014).

Molecular target: human NaV subtype, like NaV 1.7 (Homo sapiens, UniProt Q15858)
Assay: E-VIPR optical membrane potential assay with electrical stimulation
Format: cell-based
Conditions: active against one or more sodium channels; Table 3 does not name the assay or NaV subtype; read-out: Binned Activity Data (IC50)

Sequence of human NaV subtype, like NaV 1.7 (Q15858 whole entry): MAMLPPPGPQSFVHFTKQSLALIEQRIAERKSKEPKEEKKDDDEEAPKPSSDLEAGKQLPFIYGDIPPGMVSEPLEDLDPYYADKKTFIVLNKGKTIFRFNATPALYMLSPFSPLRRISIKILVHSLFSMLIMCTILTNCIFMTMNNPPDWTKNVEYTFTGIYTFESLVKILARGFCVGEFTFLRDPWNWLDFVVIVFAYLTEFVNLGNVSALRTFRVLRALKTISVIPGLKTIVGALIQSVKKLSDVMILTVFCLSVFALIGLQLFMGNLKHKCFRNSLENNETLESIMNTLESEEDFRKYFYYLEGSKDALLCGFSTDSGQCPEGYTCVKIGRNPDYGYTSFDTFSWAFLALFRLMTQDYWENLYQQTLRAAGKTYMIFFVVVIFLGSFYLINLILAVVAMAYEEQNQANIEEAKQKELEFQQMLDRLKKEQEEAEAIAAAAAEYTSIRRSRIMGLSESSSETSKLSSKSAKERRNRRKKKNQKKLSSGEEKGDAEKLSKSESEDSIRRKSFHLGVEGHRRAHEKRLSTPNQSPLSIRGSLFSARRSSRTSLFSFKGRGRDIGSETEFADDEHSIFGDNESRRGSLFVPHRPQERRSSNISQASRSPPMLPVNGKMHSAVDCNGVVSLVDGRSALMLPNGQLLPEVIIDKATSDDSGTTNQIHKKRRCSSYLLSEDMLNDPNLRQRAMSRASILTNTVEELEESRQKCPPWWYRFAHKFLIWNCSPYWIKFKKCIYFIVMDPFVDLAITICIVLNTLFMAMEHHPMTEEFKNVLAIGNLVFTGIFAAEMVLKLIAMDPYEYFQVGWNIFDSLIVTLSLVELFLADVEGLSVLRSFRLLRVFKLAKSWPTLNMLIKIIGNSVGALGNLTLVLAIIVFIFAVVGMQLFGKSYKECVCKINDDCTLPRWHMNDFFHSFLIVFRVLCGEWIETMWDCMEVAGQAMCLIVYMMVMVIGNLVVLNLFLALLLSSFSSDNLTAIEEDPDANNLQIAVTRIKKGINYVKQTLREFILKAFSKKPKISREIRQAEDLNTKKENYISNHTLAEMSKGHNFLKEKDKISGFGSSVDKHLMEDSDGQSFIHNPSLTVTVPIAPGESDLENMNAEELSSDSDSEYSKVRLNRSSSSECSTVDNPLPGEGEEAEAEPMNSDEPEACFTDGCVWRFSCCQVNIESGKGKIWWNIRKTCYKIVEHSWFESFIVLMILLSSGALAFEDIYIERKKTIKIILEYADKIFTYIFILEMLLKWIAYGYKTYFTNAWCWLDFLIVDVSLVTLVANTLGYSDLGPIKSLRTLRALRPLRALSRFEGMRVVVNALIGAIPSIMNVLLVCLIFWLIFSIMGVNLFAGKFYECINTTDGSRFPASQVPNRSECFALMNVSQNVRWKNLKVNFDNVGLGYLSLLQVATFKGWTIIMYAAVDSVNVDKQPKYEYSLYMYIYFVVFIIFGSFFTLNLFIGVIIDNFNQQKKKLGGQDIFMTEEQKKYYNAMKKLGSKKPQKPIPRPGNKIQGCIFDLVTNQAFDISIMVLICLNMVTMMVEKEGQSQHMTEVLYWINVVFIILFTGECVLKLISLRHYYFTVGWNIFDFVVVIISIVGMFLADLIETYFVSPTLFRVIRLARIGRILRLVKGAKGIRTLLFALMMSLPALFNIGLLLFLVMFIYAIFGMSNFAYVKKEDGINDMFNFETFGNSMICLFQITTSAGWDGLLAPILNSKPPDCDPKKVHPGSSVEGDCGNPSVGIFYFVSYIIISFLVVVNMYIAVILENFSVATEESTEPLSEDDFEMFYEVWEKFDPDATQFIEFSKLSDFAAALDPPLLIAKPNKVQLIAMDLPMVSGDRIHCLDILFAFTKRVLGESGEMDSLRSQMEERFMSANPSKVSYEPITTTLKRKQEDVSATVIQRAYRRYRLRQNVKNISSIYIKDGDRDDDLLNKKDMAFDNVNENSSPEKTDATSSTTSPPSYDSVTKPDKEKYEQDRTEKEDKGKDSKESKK

| SMILES | IC50 |
| --- | --- |
| COc1cc(C(=O)N2CCC3(CC2)NC(C)(C)Cn2c(C(F)(F)F)ccc23)ccc1OC(C)C [Compound 551] | ≤ 2 µM |
| C[C@H]1Cn2c(C(=O)C(F)(F)F)ccc2C2(CCN(C(=O)c3ccccc3OC(F)F)CC2)N1C [Compound 552] | ≤ 2 µM |
| CN1CCn2c(C(=O)C(F)(F)F)ccc2C12CCN(C(=O)c1ccc(COCC(F)(F)F)cc1)CC2 [Compound 553] | ≤ 2 µM |
| COc1cc(C(=O)N2CCC3(CC2)c2c(Cl)cc(C(F)(F)F)n2CCN3C)ccc1COCCC(F)(F)F [Compound 554] | ≤ 2 µM |
| COc1cc(C(=O)N2CCC3(CC2)c2ccc(C(=O)C(F)(F)F)n2CCN3C)ccc1-c1ccccc1 [Compound 555] | ≤ 2 µM |
| Cc1nc(C(=O)N2CCC3(CC2)c2ccc(C(=O)C(F)(F)F)n2C(C)CN3C)ccc1OC(C)C (centres unmarked) [Compound 556] | ≤ 2 µM |
| CC(C)S(=O)(=O)c1ccc(C(=O)N2CCC3(CC2)NC(C)(C)Cn2c(C(=O)C(F)(F)F)ccc23)cc1 [Compound 557] | ≤ 2 µM |
| CC(=O)c1ccc2n1CCN(C)C21CCN(C(=O)c2ccc(OC(C)C)c(CO)c2)CC1 [Compound 558] | > 5 µM |
| CC(=O)c1ccc2n1CCN(C)C21CCN(C(=O)c2ccc(C3CCCCC3)cc2)CC1 [Compound 559] | ≤ 2 µM |
| Cc1cc(C(=O)N2CCC3(CC2)c2c(Cl)cc(C(F)(F)F)n2CCN3C)ccc1OC(C)C [Compound 560] | ≤ 2 µM |
| CNS(=O)(=O)c1ccc(C(=O)N2CCC3(CC2)c2ccc(C(=O)C(C)(C)C)n2CCN3C)cc1C [Compound 561] | ≤ 2 µM |
| CC(C)Oc1ccc(C(=O)N2CCC3(CC2)c2c(F)cc(C(F)(F)F)n2CCN3C)cc1 [Compound 562] | ≤ 2 µM |
| CC1(C)Cn2c(C(=O)C(F)(F)F)ccc2C2(CCN(C(=O)c3ccc(C4CCCCC4)cc3)CC2)N1 [Compound 563] | ≤ 2 µM |
| CC(C)Oc1ccc(C(=O)N2CCC3(CC2)c2ccc(C(=O)C(F)(F)F)n2C[C@@H](C)N3C)c(F)c1 [Compound 564] | ≤ 2 µM |
| COc1ccc(C(=O)N2CCC3(CC2)c2cc(C(=O)C(F)(F)F)cn2C(C)(C)CN3C)c(F)c1 [Compound 565] | 2 to 5 µM |
| COc1ccc(C(=O)N2CCC3(CC2)c2ccc(C(=O)C(C)(C)C)n2CCN3C)cc1C(F)(F)F [Compound 566] | ≤ 2 µM |
| CC1(C)Cn2c(C(=O)C(F)(F)F)ccc2C2(CCN(C(=O)c3ccc(O)c(C(F)(F)F)c3)CC2)N1 [Compound 567] | ≤ 2 µM |
| CC(C)Oc1ccc(C(=O)N2CCC3(CC2)c2ccc(C(F)(F)F)n2CCN3C)cc1F [Compound 568] | ≤ 2 µM |
| O=C(c1ccc(S(=O)(=O)NC2CC2)cc1)N1CCC2(CC1)NCCn1c(C(F)(F)F)ccc12 [Compound 569] | ≤ 2 µM |
| Cc1cc(C(=O)N2CCC3(CC2)c2ccc(C(=O)C(F)(F)F)n2CCN3C)ccc1OCC(C)(C)O [Compound 570] | ≤ 2 µM |
| Cc1cc(C(=O)N2CCC3(CC2)c2ccc(C(F)(F)F)n2CCN3CC(N)=O)ccc1OC(C)C [Compound 571] | 2 to 5 µM |
| CC[C@@H](C)Oc1ccc(C(=O)N2CCC3(CC2)c2ccc(C(C)=O)n2CCN3C)cc1OC [Compound 572] | ≤ 2 µM |
| Cc1cc(C(=O)N2CCC3(CC2)c2ccc(C(=O)C(F)(F)F)n2CCN3C)ncc1OC(C)C [Compound 573] | ≤ 2 µM |
| COc1cc(C(=O)N2CCC3(CC2)c2ccc(C(F)(F)F)n2CCN3CC2CC2)ccc1OC(C)C [Compound 574] | ≤ 2 µM |
| CN1CCn2c(C(=O)C(F)(F)F)ccc2C12CCN(C(=O)c1ccc(C(C)(C)O)c(F)c1)CC2 [Compound 575] | ≤ 2 µM |
| CC1(C)Cn2c(C(=O)C(F)(F)F)ccc2C2(CCN(C(=O)c3ccc(-c4ccccc4)c(F)c3)CC2)N1 [Compound 576] | ≤ 2 µM |
| CC(=O)c1ccc2n1CCN(C)C21CCN(C(=O)c2ccc(OC(F)(F)F)cc2)CC1 [Compound 577] | > 5 µM |
| COc1ccc(C(=O)N2CCC3(CC2)c2ccc(C(=O)C(C)(C)C)n2CCN3C)c(F)c1 [Compound 578] | 2 to 5 µM |
| CCOc1cc(C(=O)N2CCC3(CC2)c2ccc(C(F)(F)F)n2CCN3C)ccc1CO [Compound 579] | ≤ 2 µM |
